Data as given in patent US9476099B2 (TRUSTEES OF DARTMOUTH COLLEGE, priority 2012, dated 2016).

Test system: gene promoters in NT2/D1-R1 control and DNMT3B knockdown cells
Assay: Genome-wide promoter methylation analysis, HumanMethylation27 BeadChip (Table 15)
Type: cell-based, human
Settings: sh-3b + 5aza
Description: DNA methylation analysis was performed in samples in triplicate using the […] […] assay with the HumanMethylation27 BeadChip ([…]) and the BeadChip was scanned on the BeadArray Reader ([…]), according to the manufacturer's instructions. Raw data was normalized and analyzed with Genome Studio software ([…]). The HumanMethylation27 BeadChip assays 27,578 CpGs covering more than 14,000 genes, mostly from promoter regions. […] Hierarchical clustering was performed as stated above. HumanMethylation27 BeadChip data and gene expression microarray data were submitted to NCBI GEO.

Q: Which results are given for `Nc1ncn([C@H]2C[C@H](O)[C@@H](CO)O2)c(=O)n1` [5aza]?
A: ABCC1 cg20158248 promoter methylation Mean: 0.458; ACP1 cg27226618 promoter methylation Mean: 0.490; ADCY4 cg16761581 promoter methylation Mean: 0.297; ADRA2A cg26926521 promoter methylation Mean: 0.682; ALDH1A3 cg19224278 promoter methylation Mean: 0.310; ALKBH4 cg07404418 promoter methylation Mean: 0.312; ALX4 cg04549333 promoter methylation Mean: 0.880; ALX4 cg04970352 promoter methylation Mean: 0.645; ALX4 cg19358442 promoter methylation Mean: 0.834; ANKRD13C cg19342782 promoter methylation Mean: 0.372; ANKRD45 cg15883716 promoter methylation Mean: 0.793; APC cg16970232 promoter methylation Mean: 0.269; BLOC1S2 cg26610808 promoter methylation Mean: 0.526; BTBD5 cg00660989 promoter methylation Mean: 0.214; BTNL8 cg24024214 promoter methylation Mean: 0.781; C1QL1 cg13818573 promoter methylation Mean: 0.255; C1orf188 cg15731815 promoter methylation Mean: 0.321; C10orf107 cg16063112 promoter methylation Mean: 0.230; C14orf173 cg24404909 promoter methylation Mean: 0.248; C16orf60 cg17858663 promoter methylation Mean: 0.177; C19orf4 cg07379574 promoter methylation Mean: 0.733; C19orf22 cg18022193 promoter methylation Mean: 0.180; CAMK1G cg27337148 promoter methylation Mean: 0.715; CD58 cg21039631 promoter methylation Mean: 0.325; CDKN2B cg04675937 promoter methylation Mean: 0.167; CDKN2B cg08390209 promoter methylation Mean: 0.150; CDX1 cg15452204 promoter methylation Mean: 0.424; CEACAM4 cg10237469 promoter methylation Mean: 0.430; CEACAM7 cg19623751 promoter methylation Mean: 0.616; CGI-38 cg13067215 promoter methylation Mean: 0.274; CHD5 cg00282347 promoter methylation Mean: 0.682; CHMP2A cg14042128 promoter methylation Mean: 0.354; COL11A1 cg12884406 promoter methylation Mean: 0.331; COPS7B cg05422352 promoter methylation Mean: 0.338; CRSP7 cg24459023 promoter methylation Mean: 0.268; CSPG3 cg06952310 promoter methylation Mean: 0.350; CSTF2T cg06712026 promoter methylation Mean: 0.277; CTAGE1 cg02847216 promoter methylation Mean: 0.727; CUL3 cg09509863 promoter methylation Mean: 0.309; CYP4F12 cg25813714 promoter methylation Mean: 0.721; DCTD cg14892066 promoter methylation Mean: 0.171; DDEF2 cg22190705 promoter methylation Mean: 0.187; DEFB118 cg03014957 promoter methylation Mean: 0.548; DNASE2 cg07955356 promoter methylation Mean: 0.207; DPH1 cg11516377 promoter methylation Mean: 0.319; DYRK1B cg18851831 promoter methylation Mean: 0.820; EIF2B3 cg16604218 promoter methylation Mean: 0.360; ELSPBP1 cg19404979 promoter methylation Mean: 0.406; ENOSF1 cg16112050 promoter methylation Mean: 0.724; EPN3 cg24006361 promoter methylation Mean: 0.739; EREG cg19308222 promoter methylation Mean: 0.252; FAM111B cg13864937 promoter methylation Mean: 0.366; FLJ10726 cg14145762 promoter methylation Mean: 0.292; FLJ11200 cg09001953 promoter methylation Mean: 0.335; FLJ23514 cg16404106 promoter methylation Mean: 0.436; FLRT3 cg23127998 promoter methylation Mean: 0.249; FLT3LG cg01667384 promoter methylation Mean: 0.179; FXYD7 cg22392666 promoter methylation Mean: 0.720; G10 cg02798801 promoter methylation Mean: 0.349; GABRB2 cg16509658 promoter methylation Mean: 0.176; GALNT4 cg16606638 promoter methylation Mean: 0.245; GAS8 cg03634997 promoter methylation Mean: 0.814; GBX2 cg23095584 promoter methylation Mean: 0.268; GNAS cg27661264 promoter methylation Mean: 0.334; GRB10 cg26163537 promoter methylation Mean: 0.310; GUP1 cg24938727 promoter methylation Mean: 0.441; HACE1 cg23047681 promoter methylation Mean: 0.156; HGF cg06745740 promoter methylation Mean: 0.404; HNRNPG-T cg22062068 promoter methylation Mean: 0.650; HOXB4 cg25145670 promoter methylation Mean: 0.311; HRASLS cg08376864 promoter methylation Mean: 0.309; HYPK cg00480356 promoter methylation Mean: 0.630; ICAM1 cg08607082 promoter methylation Mean: 0.149; IFI16 cg07463059 promoter methylation Mean: 0.386; IFI44 cg07107453 promoter methylation Mean: 0.330; IFNA2 cg13235447 promoter methylation Mean: 0.480; IGF2AS cg20792294 promoter methylation Mean: 0.211; IGFBP5 cg19008649 promoter methylation Mean: 0.264; IGSF9 cg19111262 promoter methylation Mean: 0.576; IHH cg17178336 promoter methylation Mean: 0.504; IL2RG cg01361446 promoter methylation Mean: 0.834; IL18 cg11304234 promoter methylation Mean: 0.478; INPP5B cg10784030 promoter methylation Mean: 0.251; ITGB3BP cg18464559 promoter methylation Mean: 0.121; KA21 cg23776012 promoter methylation Mean: 0.410; KCNA3 cg03483626 promoter methylation Mean: 0.208; KCNAB3 cg14918082 promoter methylation Mean: 0.534; KCNB2 cg11754206 promoter methylation Mean: 0.377; KCNK10 cg17671157 promoter methylation Mean: 0.820; KLK7 cg19953406 promoter methylation Mean: 0.680; LAMB1 cg10064162 promoter methylation Mean: 0.295; LDHD cg24429836 promoter methylation Mean: 0.510; LIG4 cg08216792 promoter methylation Mean: 0.266; LYNX1 cg24046110 promoter methylation Mean: 0.288; MC3R cg19226099 promoter methylation Mean: 0.784; MGC26856 cg07684809 promoter methylation Mean: 0.260; MLNR cg02620013 promoter methylation Mean: 0.418; MPHOSPH6 cg16119274 promoter methylation Mean: 0.280; MSX1 cg03199651 promoter methylation Mean: 0.204; MYOD1 cg24322623 promoter methylation Mean: 0.650; NCKIPSD cg04244987 promoter methylation Mean: 0.242; NDP cg11614809 promoter methylation Mean: 0.579; NEFH cg16042149 promoter methylation Mean: 0.776; NEIL2 cg14329976 promoter methylation Mean: 0.226; NME5 cg13707560 promoter methylation Mean: 0.911; NME5 cg25507001 promoter methylation Mean: 0.671; NOC3L cg07270175 promoter methylation Mean: 0.464; NOX4 cg17063929 promoter methylation Mean: 0.575; NPAS1 cg09628601 promoter methylation Mean: 0.303; NRXN1 cg10917619 promoter methylation Mean: 0.594; OR1N1 cg14598387 promoter methylation Mean: 0.339; OR10J1 cg15700197 promoter methylation Mean: 0.444; PACS1 cg01663295 promoter methylation Mean: 0.329; PCDHB13 cg14592099 promoter methylation Mean: 0.423; PCDHB13 cg24435562 promoter methylation Mean: 0.273; PCDHGA12 cg11647681 promoter methylation Mean: 0.623; PCGF5 cg17001035 promoter methylation Mean: 0.664; PEPD cg06546607 promoter methylation Mean: 0.229; PEX5L cg02430692 promoter methylation Mean: 0.322; PI3 cg02442161 promoter methylation Mean: 0.625; PIGL cg05310071 promoter methylation Mean: 0.231; POU3F3 cg20291049 promoter methylation Mean: 0.268; POU4F2 cg24199834 promoter methylation Mean: 0.231; PTCH2 cg15329642 promoter methylation Mean: 0.576; PTPN5 cg17233601 promoter methylation Mean: 0.498; RASGEF1A cg07871503 promoter methylation Mean: 0.574; RBPSUHL cg21835643 promoter methylation Mean: 0.665; REM1 cg12153542 promoter methylation Mean: 0.456; REM1 cg26299767 promoter methylation Mean: 0.440; RLN3R1 cg12238343 promoter methylation Mean: 0.451; RPL39L cg07441272 promoter methylation Mean: 0.505; RRM2B cg07125123 promoter methylation Mean: 0.288; RYR1 cg05471297 promoter methylation Mean: 0.272; S100A12 cg02813121 promoter methylation Mean: 0.719; SCUBE2 cg01081263 promoter methylation Mean: 0.505; SCUBE2 cg19237879 promoter methylation Mean: 0.493; SEMA3E cg08274234 promoter methylation Mean: 0.207; SEMA6C cg01958916 promoter methylation Mean: 0.255; SEPN1 cg21187265 promoter methylation Mean: 0.381
